The values below come from patent US8058233B2, “Modification of feeding behavior using PYY and GLP-1” (Oregon Health and Science University, priority 2002, dated 2011).

One test deals with POMC neurons. Description: Whole cell recordings from fluorescent POMC-EGFP neurons in ARC slices (Example 2). It counts as cell-based, mouse.
Test [1] is described as follows: Co-administration of PYY3-36 and GLP-1 by intravenous infusion in humans, free buffet meal. The format is in vivo, human. From the text: 10 healthy volunteers (4 men and 6 women) having a mean age of 24.7 (±0.8) years and a mean BMI of 22.7 (±0.6) kg/m^2 were recruited. The volunteers were asked to fast and to drink only water from 9 pm on the night preceding all study days. Each volunteer attended for four study days. The volunteers arrived at 9.30 am and the venflons were inserted.
The study was double blinded. GLP-1 is i.e. GLP-1 (7-36) amide

Test [2] is described as follows: 1-hour food intake after IP GLP-1 with intra-arcuate exendin 9-39 in non-fasted rats. It counts as in vivo, rat. Particulars: GLP-1 25 nmol/kg, exendin 9-39 20 nmoles/kg, FIG. 11. Here is the method:
GLP-1 i.e. GLP-1 (7-36) amide (25 nmol/kg) or saline (control) was administered parenterally to non-fasted rats prior to the onset of the dark phase. Exendin 9-39 (20 nmoles/kg) or saline (control) injected into the arcuate nucleus of non-fasted rats. Food intake one hour later was measured.

Test [3] is described as follows: Intracerebroventricular GLP-1 in rats. It counts as in vivo, rat. From the text:
This effect is blocked by the specific GLP-1 receptor antagonist, exendin 9-39. GLP-1 receptors are found in the brainstem, arcuate nucleus and PVN. Following ICV GLP-1 administration, c-fos is expressed in the arcuate nucleus and PVN.

Test [4] deals with non-fluorescent ARC neurons. Briefly: Recordings from adjacent non-fluorescent ARC neurons. The format is cell-based, mouse. Particulars: 13 cells tested.

No end group written: not given here.

Regarding CTAP, the “effect on the current induced by Met-Enk in POMC cells” value in the test with POMC neurons (CTAP 1 μM, Met-Enk 30 μM, n=3) is reported as “completely prevented”.

Take D-Trp^8-γMSH: the “increase in frequency of GABAergic IPSCs in POMC neurons” value in the test on POMC neurons (7 nM, 3 of 4 POMC neurons) worked out at 280±90%. Further, the “hyperpolarization of POMC neurons” value in the test with POMC neurons (7 nM, 9 of 15 POMC neurons) was −5.5±2.4 mV.

For “GLP-1 (7-36) amide (HAEGTFTSDVSSYLEGGAAKEFIAWLVKGR-NH2)”, in test [1] (IV infusion 0.4 pmol/kg/min for 120 minutes (90 minutes pre-meal), 10 volunteers, saline 997), the “Food intake from free buffet meal, mean” value is 950 kcal. The “% reduction from saline” value in test [1] (IV infusion 0.4 pmol/kg/min for 120 minutes, free buffet meal) turned out to be 5%. In addition, the “effect of IP GLP-1 on 1-hour food intake with exendin 9-39 in the arcuate nucleus” value in test [2] is “not influenced by the presence of concomitant exendin 9-39”. Further, the “food intake after ICV administration” value in test [3] is listed as “potently inhibits food intake”.

As to exendin 9-39, the “effect on inhibition of food intake by ICV GLP-1” value in test [3] is recorded as “blocked”.

On to “leptin: leptin, hormone applied to POMC cells in slice preparations”, for which, in test [4], the “effect on membrane potential of non-fluorescent ARC cells” value is “had no effect on 5 of 13 adjacent non-fluorescent cells tested (FIG. 3e), while it hyperpolarized 5 (FIG. 3f) and depolarized 3 other non-POMC neurons”. For the same substance, the “decrease in frequency of GABAergic IPSCs in POMC cells” value in the test with POMC neurons (100 nM, in 5 out of 15 cells) is reported as 25%. Besides, the “depolarization of POMC cells, mean±SEM” value with POMC neurons (100 nM, n=45) was 9.7±1.2 mV. Moreover, the “time to depolarization of POMC cells” value with POMC neurons (0.1-100 nM) was in the range of 2 to 10 min. Moreover, the “depolarization of POMC cells” value in the test on POMC neurons (0.1-100 nM, 72 of 77 POMC cells) was 3-30 mV.

In the case of met-enkephalin, the “time to hyperpolarization of POMC cells” value with POMC neurons (30 μM) lay in the range of 35 to 40 s. In addition, the “hyperpolarization of the membrane potential of POMC cells” value with POMC neurons (30 μM, n=10, reversible) is 10-20 mV.

As for neuropeptide Y [NPY], the “hyperpolarization of POMC neurons, average” value in the test with POMC neurons (n=3) came out at 9±6 mV.
